Assay results reported in paper PMC5218480 (PLoS ONE, 2017).

Tested on: MV-4-11 cells
Test: Gene expression microarray analysis (Affymetrix PrimeView) and GSEA
Format: cell-based, human
Design: RFU PODN (11730768_x_at) / Fold change /veh PODN (11730768_x_at) / RFU LINC00158 (11744669_a_at) / Fold change /veh LINC00158 (11744669_a_at) / RFU DUSP10 (11751237_a_at) / Fold change /veh DUSP10 (11751237_a_at) / RFU ID3 (11757404_x_at) / Fold change /veh ID3 (11757404_x_at) / RFU PLEKHG5 (11737974_s_at) / Fold change /veh PLEKHG5 (11737974_s_at) / RFU LRRC4B (11730491_at) / Fold change /veh LRRC4B (11730491_at) / RFU GIMAP4 (11747438_a_at) / Fold change /veh GIMAP4 (11747438_a_at) / RFU KRT8 (11758183_x_at) / Fold change /veh KRT8 (11758183_x_at) / RFU CNN1 (11734310_a_at) / Fold change /veh CNN1 (11734310_a_at) / RFU VPS37D (11726825_at) / Fold change /veh VPS37D (11726825_at) / RFU C10orf10 (11716522_x_at) / Fold change /veh C10orf10 (11716522_x_at) / RFU KIR2DL2 /// KIR2DL4 /// KIR2DL5A /// KIR2DL5B /// KIR2DS1 /// KIR2DS2 /// KIR2DS3 /// KIR2DS4 /// KIR3DL3 /// KIR3DL3 /// KIR3DS1 (11738374_at) / Fold change /veh KIR2DL2 /// KIR2DL4 /// KIR2DL5A /// KIR2DL5B /// KIR2DS1 /// KIR2DS2 /// KIR2DS3 /// KIR2DS4 /// KIR3DL3 /// KIR3DL3 /// KIR3DS1 (11738374_at) / RFU C1QL1 (11718748_at) / Fold change /veh C1QL1 (11718748_at) / RFU TMPRSS4 (11747572_a_at) / Fold change /veh TMPRSS4 (11747572_a_at) / RFU HAMP (11756126_x_at) / Fold change /veh HAMP (11756126_x_at) / RFU RNFT2 (11725882_a_at) / Fold change /veh RNFT2 (11725882_a_at) / RFU NR4A2 (11747474_a_at) / Fold change /veh NR4A2 (11747474_a_at) / RFU ABCC12 (11746883_a_at) / Fold change /veh ABCC12 (11746883_a_at) / RFU TMEM136 (11760407_x_at) / Fold change /veh TMEM136 (11760407_x_at) / RFU CLDN22 /// WWC2 (11732394_at) / Fold change /veh CLDN22 /// WWC2 (11732394_at) / RFU HLA-DPB1 (11760878_x_at) / Fold change /veh HLA-DPB1 (11760878_x_at) / RFU SPINT1 (11716480_a_at) / Fold change /veh SPINT1 (11716480_a_at) / RFU GAP43 (11754022_s_at) / Fold change /veh GAP43 (11754022_s_at) / RFU A4GNT (11735810_at) / Fold change /veh A4GNT (11735810_at) / RFU PRB3 (11715151_x_at) / Fold change /veh PRB3 (11715151_x_at) / RFU TUBB4B (11761932_at) / Fold change /veh TUBB4B (11761932_at) / RFU CAPN14 (11732068_a_at) / Fold change /veh CAPN14 (11732068_a_at) / RFU TMCC2 (11721928_a_at) / Fold change /veh TMCC2 (11721928_a_at) / RFU IRGQ (11745062_a_at) / Fold change /veh IRGQ (11745062_a_at) / RFU FAM174B (11720279_a_at) / Fold change /veh FAM174B (11720279_a_at) / RFU TMPRSS4 (11748680_a_at) / Fold change /veh TMPRSS4 (11748680_a_at) / RFU FAM212B (11763350_a_at) / Fold change /veh FAM212B (11763350_a_at) / RFU PLEKHG5 (11743358_a_at) / Fold change /veh PLEKHG5 (11743358_a_at) / RFU ZSCAN30 (11745921_a_at) / Fold change /veh ZSCAN30 (11745921_a_at) / RFU CMKLR1 (11741424_a_at) / Fold change /veh CMKLR1 (11741424_a_at) / RFU LOC101060620 /// MAPK8IP1 (11723275_at) / Fold change /veh LOC101060620 /// MAPK8IP1 (11723275_at) / RFU SPTSSB (11747773_x_at) / Fold change /veh SPTSSB (11747773_x_at) / RFU PRSS12 (11739890_at) / Fold change /veh PRSS12 (11739890_at) / RFU BIN1 (11741810_x_at) / Fold change /veh BIN1 (11741810_x_at) / RFU WNT11 (11732464_a_at) / Fold change /veh WNT11 (11732464_a_at) / RFU C10orf10 (11716521_a_at) / Fold change /veh C10orf10 (11716521_a_at) / RFU C5orf56 (11738089_at) / Fold change /veh C5orf56 (11738089_at) / RFU CYB561 (11721691_x_at) / Fold change /veh CYB561 (11721691_x_at) / RFU ANKRD19P (11752326_a_at) / Fold change /veh ANKRD19P (11752326_a_at) / RFU OR2T12 /// OR2T33 /// OR2T8 (11738714_s_at) / Fold change /veh OR2T12 /// OR2T33 /// OR2T8 (11738714_s_at) / RFU VCAN (11748164_a_at) / Fold change /veh VCAN (11748164_a_at) / RFU JSRP1 (11732532_at) / Fold change /veh JSRP1 (11732532_at) / RFU KRTAP10-11 (11738290_x_at) / Fold change /veh KRTAP10-11 (11738290_x_at) / RFU MYO3A (11730013_a_at) / Fold change /veh MYO3A (11730013_a_at) / RFU EBF3 (11725865_a_at) / Fold change /veh EBF3 (11725865_a_at) / RFU CAMK2N1 (11719241_x_at) / Fold change /veh CAMK2N1 (11719241_x_at) / RFU C5orf56 (11738088_a_at) / Fold change /veh C5orf56 (11738088_a_at) / RFU OLFML3 (11715873_a_at) / Fold change /veh OLFML3 (11715873_a_at) / RFU LOC100653217 /// NTM (11731650_a_at) / Fold change /veh LOC100653217 /// NTM (11731650_a_at) / RFU MAPK11 (11762145_a_at) / Fold change /veh MAPK11 (11762145_a_at) / RFU FIZ1 (11724087_x_at) / Fold change /veh FIZ1 (11724087_x_at) / RFU OASL (11726364_x_at) / Fold change /veh OASL (11726364_x_at) / RFU SOX15 (11748057_x_at) / Fold change /veh SOX15 (11748057_x_at) / RFU CD79A (11719716_a_at) / Fold change /veh CD79A (11719716_a_at) / RFU HIST1H1D (11736915_at) / Fold change /veh HIST1H1D (11736915_at) / RFU CASKIN2 (11723855_a_at) / Fold change /veh CASKIN2 (11723855_a_at) / RFU LOC730098 (11760151_x_at) / Fold change /veh LOC730098 (11760151_x_at) / RFU OR4N2 (11742367_at) / Fold change /veh OR4N2 (11742367_at) / RFU PRRT2 (11749266_a_at) / Fold change /veh PRRT2 (11749266_a_at) / RFU SNX32 (11753110_a_at) / Fold change /veh SNX32 (11753110_a_at) / RFU CDHR5 (11726645_a_at) / Fold change /veh CDHR5 (11726645_a_at) / RFU RCAN1 (11760418_a_at) / Fold change /veh RCAN1 (11760418_a_at) / RFU FAM167A (11723789_a_at) / Fold change /veh FAM167A (11723789_a_at) / RFU FAM26E (11764081_at) / Fold change /veh FAM26E (11764081_at) / RFU ISYNA1 (11749810_s_at) / Fold change /veh ISYNA1 (11749810_s_at) / RFU ACY1 (11761880_at) / Fold change /veh ACY1 (11761880_at) / RFU 11764098_at / Fold change /veh 11764098_at / RFU SAMD14 (11745864_x_at) / Fold change /veh SAMD14 (11745864_x_at) / RFU NPB (11741838_a_at) / Fold change /veh NPB (11741838_a_at) / RFU TMPRSS6 (11731388_a_at) / Fold change /veh TMPRSS6 (11731388_a_at) / RFU KRTAP10-2 (11738614_at) / Fold change /veh KRTAP10-2 (11738614_at) / RFU ARHGAP8 /// PRR5-ARHGAP8 (11727945_x_at) / Fold change /veh ARHGAP8 /// PRR5-ARHGAP8 (11727945_x_at) / RFU KRTAP5-7 /// NADSYN1 (11734609_at) / Fold change /veh KRTAP5-7 /// NADSYN1 (11734609_at) / RFU RASL12 (11751679_a_at) / Fold change /veh RASL12 (11751679_a_at) / RFU CDKN2B (11736163_a_at) / Fold change /veh CDKN2B (11736163_a_at) / RFU PRF1 (11729649_at) / Fold change /veh PRF1 (11729649_at) / RFU, ZNF638 /// ZNF638-IT1 / Fold change vs veh, ZNF638 /// ZNF638-IT1 / RFU, PANK3 / Fold change vs veh, PANK3 / RFU, SH3YL1 / Fold change vs veh, SH3YL1 / RFU, ZEB2 / Fold change vs veh, ZEB2 / RFU, NRIP1 / Fold change vs veh, NRIP1 / RFU, PTTG1IP / Fold change vs veh, PTTG1IP / RFU, CAPN2 / Fold change vs veh, CAPN2 / RFU, MED14 / Fold change vs veh, MED14 / RFU, SNORA58 / Fold change vs veh, SNORA58 / RFU, C1orf63 / Fold change vs veh, C1orf63 / RFU, LRRFIP1 / Fold change vs veh, LRRFIP1 / RFU, NDUFAF7 / Fold change vs veh, NDUFAF7 / RFU, SLC12A2 / Fold change vs veh, SLC12A2 / RFU, IBTK / Fold change vs veh, IBTK / RFU, ESF1 / Fold change vs veh, ESF1 / Fold change vs veh, TMEM50B / RFU, TAOK1 / Fold change vs veh, TAOK1 / RFU, ACBD3 / Fold change vs veh, ACBD3 / RFU, TMA16 / Fold change vs veh, TMA16 / RFU, RWDD3 / Fold change vs veh, RWDD3 / RFU, BCAT1 / Fold change vs veh, BCAT1 / RFU, EDEM3 / Fold change vs veh, EDEM3 / RFU, TMEM33 / Fold change vs veh, TMEM33 / RFU, WDR75 / Fold change vs veh, WDR75 / RFU, AHCTF1 / Fold change vs veh, AHCTF1 / RFU, TFRC / Fold change vs veh, TFRC / RFU, ZDHHC17 / Fold change vs veh, ZDHHC17 / RFU, NOM1 / Fold change vs veh, NOM1 / RFU, ARL8B / Fold change vs veh, ARL8B / RFU, ZBTB11 / Fold change vs veh, ZBTB11 / RFU, TAMM41 / Fold change vs veh, TAMM41 / RFU, KIAA1704 /// LOC100996395 / Fold change vs veh, KIAA1704 /// LOC100996395 / RFU, ING1 / Fold change vs veh, ING1 / RFU, TRMT61B / Fold change vs veh, TRMT61B / RFU, FUBP3 / Fold change vs veh, FUBP3 / RFU, TP53 / Fold change vs veh, TP53 / RFU, TNKS2 / Fold change vs veh, TNKS2 / RFU, ZFP14 / Fold change vs veh, ZFP14 / RFU, ACTR2 / Fold change vs veh, ACTR2 / RFU, PPP3R1 / Fold change vs veh, PPP3R1 / RFU, PIK3R1 / Fold change vs veh, PIK3R1 / RFU, HNRNPA1 / Fold change vs veh, HNRNPA1 / RFU, RNF170 / Fold change vs veh, RNF170 / RFU, ZNF28 / Fold change vs veh, ZNF28 / RFU, RNGTT / Fold change vs veh, RNGTT / RFU, OGT / Fold change vs veh, OGT / RFU, BRD1 / Fold change vs veh, BRD1 / RFU, MARS / Fold change vs veh, MARS / RFU, ZNF655 / Fold change vs veh, ZNF655 / RFU, FAHD1 / Fold change vs veh, FAHD1 / RFU, BDP1 / Fold change vs veh, BDP1 / RFU, LRRCC1 / Fold change vs veh, LRRCC1 / RFU, ARID1A / Fold change vs veh, ARID1A / RFU, ZNF146 / Fold change vs veh, ZNF146 / RFU, ZNF330 / Fold change vs veh, ZNF330 / RFU, GPN3 / Fold change vs veh, GPN3 / RFU, C9orf123 / Fold change vs veh, C9orf123 / RFU, N4BP2L2 / Fold change vs veh, N4BP2L2 / RFU, ARFIP1 / Fold change vs veh, ARFIP1 / RFU, FAM179B / Fold change vs veh, FAM179B / RFU, BCL10 / Fold change vs veh, BCL10 / RFU, UHRF1BP1L / Fold change vs veh, UHRF1BP1L / RFU, BET1 / Fold change vs veh, BET1 / RFU, CNOT2 / Fold change vs veh, CNOT2 / RFU, ZNF268 / Fold change vs veh, ZNF268 / Fold change vs veh, ZNF507 / RFU, DGCR2 / Fold change vs veh, DGCR2 / RFU, WDSUB1 / Fold change vs veh, WDSUB1 / Fold change vs veh, HSP90B1 /// MIR3652 / RFU, ADSS / Fold change vs veh, ADSS / RFU, GK / Fold change vs veh, GK / RFU, ZNF148 / Fold change vs veh, ZNF148 / RFU, TAF9 / Fold change vs veh, TAF9 / RFU, SLC1A5 / Fold change vs veh, SLC1A5 / RFU, SLMO2 / Fold change vs veh, SLMO2 / RFU, ABCC4 / Fold change vs veh, ABCC4 / RFU, LOC101060439 /// RAP1B / Fold change vs veh, LOC101060439 /// RAP1B / RFU, RFX7 / Fold change vs veh, RFX7 / RFU, GTPBP10 / Fold change vs veh, GTPBP10 / RFU, CNEP1R1 / Fold change vs veh, CNEP1R1 / RFU, BIVM-ERCC5 /// ERCC5 / Fold change vs veh, BIVM-ERCC5 /// ERCC5 / RFU, ILF3 / Fold change vs veh, ILF3 / RFU 11762660_at / Fold change /veh 11762660_at / RFU VCAN (11757783_s_at) / Fold change /veh VCAN (11757783_s_at) / RFU DDX43 (11728927_at) / Fold change /veh DDX43 (11728927_at) / RFU KRT8 (11758188_x_at) / Fold change /veh KRT8 (11758188_x_at) / RFU NKD1 (11759106_at) / Fold change /veh NKD1 (11759106_at) / RFU SRD5A1 (11742802_a_at) / Fold change /veh SRD5A1 (11742802_a_at) / RFU TPSAB1 /// TPSB2 (11721975_s_at) / Fold change /veh TPSAB1 /// TPSB2 (11721975_s_at) / RFU GSTM3 (11746129_a_at) / Fold change /veh GSTM3 (11746129_a_at) / RFU IL23R (11737362_x_at) / Fold change /veh IL23R (11737362_x_at) / RFU TMEM51 (11727254_a_at) / Fold change /veh TMEM51 (11727254_a_at) / RFU PIWIL2 (11732686_x_at) / Fold change /veh PIWIL2 (11732686_x_at) / RFU ORM1 (11744905_x_at) / Fold change /veh ORM1 (11744905_x_at) / RFU CCDC152 (11743942_at) / Fold change /veh CCDC152 (11743942_at) / RFU ECM1 (11717891_a_at) / Fold change /veh ECM1 (11717891_a_at) / RFU IL23R (11748794_a_at) / Fold change /veh IL23R (11748794_a_at) / RFU TNFAIP8L3 (11732012_x_at) / Fold change /veh TNFAIP8L3 (11732012_x_at) / RFU MBOAT4 (11741988_at) / Fold change /veh MBOAT4 (11741988_at) / RFU 11764193_at / Fold change /veh 11764193_at / RFU TMEM53 (11763286_at) / Fold change /veh TMEM53 (11763286_at) / RFU MAGEB2 (11727129_at) / Fold change /veh MAGEB2 (11727129_at) / RFU TMEM200A (11744735_a_at) / Fold change /veh TMEM200A (11744735_a_at) / RFU CCDC152 (11751479_a_at) / Fold change /veh CCDC152 (11751479_a_at) / RFU FAM211A (11726209_a_at) / Fold change /veh FAM211A (11726209_a_at) / RFU RGS16 (11746705_a_at) / Fold change /veh RGS16 (11746705_a_at) / RFU VCAN (11755009_s_at) / Fold change /veh VCAN (11755009_s_at) / RFU RHOB (11743442_s_at) / Fold change /veh RHOB (11743442_s_at) / RFU RGS16 (11720943_a_at) / Fold change /veh RGS16 (11720943_a_at) / RFU RGS16 (11720944_at) / Fold change /veh RGS16 (11720944_at) / RFU, VPS4B / Fold change vs veh, VPS4B / RFU, CREB1 / Fold change vs veh, CREB1 / RFU, DNAJC13 / Fold change vs veh, DNAJC13 / RFU, GNAQ / Fold change vs veh, GNAQ / RFU, CDK5R1 / Fold change vs veh, CDK5R1 / RFU, ZRANB3 / Fold change vs veh, ZRANB3 / RFU, CUL4A / Fold change vs veh, CUL4A / RFU, CCNY / Fold change vs veh, CCNY / RFU, UFL1 / Fold change vs veh, UFL1 / RFU, COG3 / Fold change vs veh, COG3 / RFU, DIAPH2 / Fold change vs veh, DIAPH2 / RFU, SKA2 / Fold change vs veh, SKA2 / RFU, AFF3 / Fold change vs veh, AFF3 / RFU, LMF1 / Fold change vs veh, LMF1 / RFU, IPO11 / Fold change vs veh, IPO11 / RFU, DFFB / Fold change vs veh, DFFB / RFU, FOXP1 / Fold change vs veh, FOXP1 / RFU, CARD8 / Fold change vs veh, CARD8 / RFU, STRN3 / Fold change vs veh, STRN3 / RFU, ADK / Fold change vs veh, ADK / RFU, RASSF2 / Fold change vs veh, RASSF2 / RFU, WIPF1 / Fold change vs veh, WIPF1 / RFU, LARP1B / Fold change vs veh, LARP1B / RFU, RASA1 / Fold change vs veh, RASA1 / RFU, RB1 / Fold change vs veh, RB1 / RFU, PPFIA1 / Fold change vs veh, PPFIA1 / RFU, MAT2A / Fold change vs veh, MAT2A / RFU, CCT5 / Fold change vs veh, CCT5 / RFU, WDR92 / Fold change vs veh, WDR92 / RFU, CUX1 / Fold change vs veh, CUX1 / RFU, TTC7A / Fold change vs veh, TTC7A / RFU, TMEM135 / Fold change vs veh, TMEM135 / RFU, DEPTOR / Fold change vs veh, DEPTOR / RFU, CPM / Fold change vs veh, CPM / RFU, DNAJB6 / Fold change vs veh, DNAJB6 / RFU, CACNA2D3 / Fold change vs veh, CACNA2D3 / RFU, DTX4 / Fold change vs veh, DTX4 / RFU, TFCP2 / Fold change vs veh, TFCP2 / RFU, GMCL1 /// GMCL1P1 / Fold change vs veh, GMCL1 /// GMCL1P1 / RFU, AEBP2 / Fold change vs veh, AEBP2 / RFU, SNHG1 /// SNORD22 /// SNORD25 /// SNORD26 /// SNORD27 /// SNORD28 /// SNORD29 /// SNORD31 / Fold change vs veh, SNHG1 /// SNORD22 /// SNORD25 /// SNORD26 /// SNORD27 /// SNORD28 /// SNORD29 /// SNORD31 / Fold change (Aza/veh), C12orf56 (ProbeSet 11735607_a_at) / Fold change (ACY-1035/veh), C12orf56 (ProbeSet 11735607_a_at) / Fold change (Aza/veh), FGFR1OP (ProbeSet 11751329_s_at) / Fold change (ACY-1035/veh), FGFR1OP (ProbeSet 11751329_s_at) / Fold change (Aza/veh), VPS36 (ProbeSet 11739960_a_at) / Fold change (ACY-1035/veh), VPS36 (ProbeSet 11739960_a_at) / RFU SYPL1 (11715823_x_at) / Fold change /veh SYPL1 (11715823_x_at) / RFU IGFBP7 (11715501_s_at) / Fold change /veh IGFBP7 (11715501_s_at) / RFU REEP3 (11722064_at) / Fold change /veh REEP3 (11722064_at) / RFU IGLL1 (11728026_x_at) / Fold change /veh IGLL1 (11728026_x_at): dose or concentration left out as unconfirmed
Settings: ProbeSet 11750457_a_at; LIST B

For Nc1ncn([C@@H]2O[C@H](CO)[C@@H](O)[C@H]2O)c(=O)n1 [azacitidine], the “RFU, GTPBP10” value was 30.84 RFU.
